{
  "source": "paper PMC3111092",
  "about": "(Journal of natural products, 2011)",
  "key": {"NF-κB p65": {"tested_on": "NF-κB p65", "assay": "ELISA based NF-κB p65 inhibitory assay in HeLa cells", "type": "cell-based", "settings": "for NF-κB inhibition activity (in words): HeLa cells, p65 ELISA; for IC50: Homo sapiens, HeLa, read-out: NF-κB inhibitory activity IC50"}, "Escherichia coli": {"tested_on": "Escherichia coli", "assay": "Antimicrobial agar plate diffusion assay", "type": "cell-based"}, "Staphylococcus aureus": {"tested_on": "Staphylococcus aureus", "assay": "Antimicrobial agar plate diffusion assay", "type": "cell-based"}, "Bacillus subtilis": {"tested_on": "Bacillus subtilis", "assay": "Antimicrobial agar plate diffusion assay", "type": "cell-based"}, "TAK1": {"tested_on": "TAK1", "settings": "reported previously; cited from earlier work"}},
  "data": [
    {"compound": "C[C@H]1C/C=C\\C(=O)[C@@H](O)[C@@H](O)C/C=C/c2cc(O)cc(O)c2C(=O)O1", "note": "[compound 1, 15-O-desmethyl-5Z-7-oxozeaenol]", "values": [
      {"measurement": "NF-κB inhibition activity (in words)", "setting": "NF-κB p65", "value": "sub-micromolar"}
    ]},
    {"compound": "CC1(C)S[C@@H]2[C@H](NC(=O)Cc3ccccc3)C(=O)N2[C@H]1C(=O)O", "note": "[penicillin G, reference compound]", "values": [
      {"measurement": "lowest concentration at which biological activity could be detected", "setting": "Escherichia coli; positive controls", "value": 100, "unit": "μg/mL"}
    ]},
    {"compound": "COc1cc(O)c2c(c1)/C=C/C[C@H](O)[C@H](O)[C@@H](O)/C=C/C[C@H](C)OC2=O", "note": "[compound 2, zeaenol]", "values": [
      {"measurement": "IC50", "setting": "NF-κB p65", "value": "> 50", "unit": "µM"},
      {"measurement": "MIC", "setting": "Staphylococcus aureus", "value": "> 500", "unit": "µg/mL"},
      {"measurement": "MIC", "setting": "Bacillus subtilis", "value": "> 500", "unit": "µg/mL"}
    ]},
    {"compound": "COc1cc(O)c2c(c1)/C=C/C[C@H](O)[C@H](O)[C@H](O)/C=C/C[C@H](C)OC2=O", "note": "[compound 3, 7-epi-zeaenol]", "values": [
      {"measurement": "IC50", "setting": "NF-κB p65", "value": "> 50", "unit": "µM"},
      {"measurement": "MIC", "setting": "Escherichia coli", "value": "> 500", "unit": "µg/mL"}
    ]},
    {"compound": "COc1cc(O)c2c(c1)/C=C/C[C@H](O)[C@H](O)C(=O)/C=C\\C[C@H](C)OC2=O", "note": "[compound 5, 5Z-7-oxozeaenol]", "values": [
      {"measurement": "NF-κB inhibition activity (in words)", "setting": "NF-κB p65", "value": "sub-micromolar"},
      {"measurement": "MIC", "setting": "Staphylococcus aureus", "value": "> 500", "unit": "µg/mL"},
      {"measurement": "TAK1 inhibition", "setting": "TAK1", "value": "potent inhibitor"}
    ]}
  ]
}
